Test results from patent publication US12691070B2, “Cationic lipids and preparation method thereof” (RiboX Therapeutics HK Limited, priority 2023, dated 2026).

Tests used:
[1] = LNP size and polydispersity index (PDI) by dynamic light scattering; assay type: physicochemical; settings: for Size: in nm (unit assumed)
Outline: (§1)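 Dynamic light scattering and zeta potential measurements were run on PBS-dialyzed LNPs, which had been formed by microfluidic mixing at 12 ml/min with final lipid at 1.5 mM to 6 mM. RNA content and percent encapsulation were determined by Ribogreen with and without Triton X-100.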

[2] = LNP zeta potential (Zetasizer); assay type: physicochemical
Outline: as §1

[3] = RNA encapsulation efficacy by Quant-IT Ribogreen kit; assay type: physicochemical; settings: for Encapsulation Efficiency %: LNP with cirRNA (SEQ ID NO: 1)
Outline: as §1

Hep G2 cells [4] = test: In vitro expression of firefly-luciferase, Hep G2; assay type: cell-based
Outline: (§2)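 First, cells were dosed with RNA lipid nanoparticles encoding firefly luciferase (100 ng/mL). Second, at 72 h they were washed and lysed. Third, lysate luciferase activity was read with a luminometer.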

RAW 264.7 cells [5] = test: In vitro expression of firefly-luciferase, RAW 264.7; assay type: cell-based
Outline: as §2

Hep G2 cells [6] = test: In vitro toxicity (CellTiter-Glo cell viability), Hep G2; assay type: cell-based;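 further: percent of untreated cells luminescence signal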
Outline: (§3)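 Luminescent ATP read-out (CellTiter-Glo) gives the viability value, taken 72 h after cells were exposed to RNA-loaded lipid nanoparticles at 1 μg/mL.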

RAW 264.7 cells [7] = test: In vitro toxicity (CellTiter-Glo cell viability), RAW 264.7; assay type: cell-based;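 further: percent of untreated cells luminescence signal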
Outline: as §3

BALB/C mice = test: In vivo expression, whole-body luminescence (IVIS)
Method: 6-8 week old, female BALB/C mice were injected with 0.05 mg*kg-1 of RNA-LNPs encoding for firefly-luciferase by intravenous injection. At 6 hours post injection, animals were intraperitoneally injected with 15 mg/ml of Luciferin substrate and whole-body luminescence was determined by a bioluminescent in vivo imaging system (IVIS).

[8] = cirRNA (SEQ ID NO: 1) LNPs, firefly-luciferase luminescence, Hep G2 cells
[9] = cirRNA (SEQ ID NO: 1) LNPs, firefly-luciferase luminescence, RAW 264.7 cells
[10] = cirRNA (SEQ ID NO: 1) LNPs, Hep G2 cells
[11] = cirRNA (SEQ ID NO: 1) LNPs, RAW 264.7 cells
[12] = cirRNA (SEQ ID NO: 1) LNPs, BALB/C mice
[13] = mRNA (SEQ ID NO: 2) LNP, 100 ng/mL, 72 hours post transfection, luciferase activity
[14] = mRNA (SEQ ID NO: 2) LNP, 1 μg/mL, 72 hours post transfection

SMILES	PDI ([1]; LNP with cirRNA (SEQ ID NO: 1))	Size ([1]; LNP with cirRNA (SEQ ID NO: 1))	Zeta (mV) ([2]; LNP with cirRNA (SEQ ID NO: 1))	Encapsulation Efficiency % [3] [%]	In vitro Expression HepG2 (Hep G2 cells [4]; [8])	In vitro Expression RAW (RAW 264.7 cells [5]; [9])	In vitro Viability HepG2 (Hep G2 cells [6]; [10]) [%]	In vitro Viability RAW (RAW 264.7 cells [7]; [11]) [%]	In vivo Expression (Whole Body) (BALB/C mice; [12])	PDI ([1]; LNP with mRNA (SEQ ID NO: 2))	Size ([1]; LNP with mRNA (SEQ ID NO: 2))	Zeta (mV) ([2]; LNP with mRNA (SEQ ID NO: 2))	Encapsulation Efficiency ([3]; LNP with mRNA (SEQ ID NO: 2)) [%]	In vitro Expression HepG2 (Hep G2 cells [4]; [13])	In vitro Expression RAW (RAW 264.7 cells [5]; [13])	In vitro Viability HepG2 (Hep G2 cells [6]; [14]) [%]	In vitro Viability RAW (RAW 264.7 cells [7]; [14]) [%]	In vivo Expression (Whole Body) (BALB/C mice; mRNA (SEQ ID NO: 2) LNP, 0.05 mg*kg-1 intravenous, 6 hours post injection)
CCCCCCCCCCCOC(=O)CCCCCN(CCCCCCCCOC(=O)C(CCCCCC)CCCCCCCC)CCOC(=O)NCCN1CCCCC1 (centres unmarked) [Lipid 227]	0.1088	79.97	4.217	92	4.71E+05	1.99E+05	82	83	9.21E+07	–	–	–	–	–	–	–	–	–
CCCCCCCCCCC(CCCCCCCC)COC(=O)CCCCCN(CCCCCCCCOC(=O)C(CCCCCC)CCCCCCCC)CCCOC(=O)NCCN(C)C (centres unmarked) [Lipid 364]	0.2481	113.5	0.2395	89	1.11E+06	9.94E+04	81	64	4.73E+06	–	–	–	–	–	–	–	–	–
CCCCC/C=C\C/C=C\CCCCCCCCN(CCCCCCCC/C=C\CCCCCCCC)CCOC(=O)NCCCN(CC)CC [Lipid 69, 2-(((Z)-octadec-9-en-1-yl)((9Z,12Z)-octadeca-9,12-dien-1-yl)amino)ethyl (3-(diethylamino)propyl)carbamate]	0.205	161.1	16.31	95	4.62E+04	2.25E+02	86	102	2.17E+06	–	–	–	–	–	–	–	–	–
CCCCCCCCCCCOC(=O)CCCCCN(CCCCCCCC(=O)OC(CCCCCCCC)CCCCCCCC)CCOC(=O)NCCCn1ccnc1 [Lipid 163]	0.1586	61.87	−3.271	79	5.77E+04	3.32E+03	92	88	7.96E+06	–	–	–	–	–	–	–	–	–
CCCCCCCCCCCOC(=O)CCCCCN(CCCCCCCC(=O)OC(CCCCCCCC)CCCCCCCC)CCOC(=O)NCCN(C)C [Lipid 158, heptadecan-9-yl 2-methyl-6-oxo-10-(6-oxo-6-(undecyloxy)hexyl)-7-oxa-2,5,10-triazaoctadecan-18-oate]	0.2315	97.72	6.058	72	1.24E+06	1.37E+04	64	0	1.62E+07	–	–	–	–	–	–	–	–	–
CCCCCCOC(=O)CCCCCCCCCCN(CCCCCCCCCCC(=O)OCCCCCC)CCOC(=O)NCCCN(CC)CC [Lipid 137, hexyl 3-ethyl-12-(11-(hexyloxy)-11-oxoundecyl)-8-oxo-9-oxa-3,7,12-triazatricosan-23-oate]	0.1423	224.1	19.29	92	1.57E+03	1.21E+02	12	9	1.84E+05	–	–	–	–	–	–	–	–	–
CCCCCCCCC(CCCCCCCC)OC(=O)CCCCCCCN(CCCCCCCCOC(=O)C(CCCCCC)CCCCCCCC)CCOC(=O)NCCCN(C)C (centres unmarked) [Lipid 146, heptadecan-9-yl 11-(8-((2-hexyldecanoyl)oxy)octyl)-2-methyl-7-oxo-8-oxa-2,6,11-triazanonadecan-19-oate]	0.2699	59.34	20.28	87	9.18E+05	8.92E+04	41	99	4.74E+06	–	–	–	–	–	–	–	–	–
CCCCCCCCCCC(CCCCCCCC)COC(=O)CCCCCN(CCCCCC(=O)OCC(CCCCCCCC)CCCCCCCCCC)CCOC(=O)NCCN1CCN(C)CC1 (centres unmarked) [Lipid 173]	0.3423	73.65	−0.5735	82	3.32E+07	9.48E+05	57	90	3.45E+07	–	–	–	–	–	–	–	–	–
CCCCCCCCC(CCCCCCCC)OC(=O)CCCCCCCN(CCCCCCCCOC(=O)C(CCCCCC)CCCCCCCC)CCCOC(=O)NCc1ncc[nH]1 (centres unmarked) [Lipid 345]	0.1901	70.01	−2.69	92	2.57E+06	2.20E+05	99	102	2.49E+06	–	–	–	–	–	–	–	–	–
CCCCC/C=C\C/C=C\CCCCCCCCN(CCCCCCCC/C=C\C/C=C\CCCCC)CCOC(=O)NCCN1CCN(C)CC1 [Lipid 37, 2-(di((9Z,12Z)-octadeca-9,12-dien-1-yl)amino)ethyl (2-(4-methylpiperazin-1-yl)ethyl)carbamate]	0.138	145.8	4.079	95	5.96E+05	1.98E+04	87	92	1.16E+05	–	–	–	–	–	–	–	–	–
CCCCCCCCCC(=O)OCCCCCCCN(CCCCCCCCOC(=O)C(CCCCCC)CCCCCCCC)CCCOC(=O)NCCCN(C)C (centres unmarked) [Lipid 355]	0.2834	64.55	8.299	90	1.70E+03	9.80E+02	123	72	7.94E+05	–	–	–	–	–	–	–	–	–
CCCCCCCCC(CCCCCCCC)OC(=O)CCCCCCCN(CCCCCCCCOC(=O)C(CCCCCC)CCCCCCCC)CCCOC(=O)NCCN1CCC1 (centres unmarked) [Lipid 353]	0.2483	116.6	4.334	95	4.17E+04	3.38E+03	37	40	1.48E+06	–	–	–	–	–	–	–	–	–
CCCCC/C=C\C/C=C\CCCCCCCCN(CCCCCCCC/C=C\C/C=C\CCCCC)CCOC(=O)CCCN(C)C [Lipid A, reference compound]	0.2901	145.2	1.916	74	1.90E+06	–	–	–	–	0.2719	118	10.76	83.95	3.08E+07	5.86E+06	108	96	2.13E+08
CCCCCCCCCC(=O)OCCCCCCCCN(CCCCCCCCOC(=O)CCCCCCCCC)CCOC(=O)NCCN1CCN(C)CC1 [Lipid 205]	0.1521	61.16	18.81	94	5.81E+05	7.09E+03	94	95	6.61E+05	–	–	–	–	–	–	–	–	–
